These results are taken from US7129258B2, “Substituted benzoxazoles as estrogenic agents” (priority 2001, dated 2006).

Experiment [1] has as its system Sexually immature Sprague-Dawley rats (uterine weight). Description: Rat uterotrophic test procedure (Procedure 1). In kind it is in vivo. To be noted: 0.06 μg/rat s.c., days 19-21, alone.
Experiment [2] deals with morphine-addicted rats. Kind of experiment: Rat hot flush test procedure (tail skin temperature after naloxone). In kind it is in vivo. To be noted: 0.3 mg/kg. From the text: Rat Hot Flush Test Procedure
The effect of test compounds on hot flushes can be evaluated in a standard pharmacological test procedure which measures the ability of a test compound to blunt the increase in tail skin temperature which occurs as morphine-addicted rats are acutely withdrawn from the drug using naloxone [Merchenthaler, et al., Maturitas 30: 307–16 (1998)]. It can also be used to detect estrogen receptor antagonist activity by co-dosing test compound with the reference estrogen. The following data were obtained from representative compounds of the invention (Table (7))

In experiment [3] the test system is Sexually immature 129 SvE mice (uterine weight). Kind of experiment: Mouse uterotrophic test procedure (Procedure 2). It counts as in vivo. To be noted: 50 mg/kg s.c., days 22-25.
Experiment [4] deals with ovariectomized Sprague-Dawley rats (proximal tibia). Kind of experiment: Bone mineral density in the ovariectomized rat. In kind it is in vivo. Particulars: 5 weeks.
The test system of experiment [5] is casein kinase II mRNA in mammary fat pad. Kind of experiment: Mammary end bud test procedure (rat mammotrophic assay). It counts as in vivo. As for the experimental part: Evaluation in the Mammary End Bud Test Procedure
Estrogens are required for full ductal elongation and branching of the mammary ducts, and the subsequent development of lobulo-alveolar end buds under the influence of progesterone. In this test procedure, the mammotrophic activity of selected compounds of the invention was evaluated according to the following standard pharmacological test procedure. Twenty-eight day old Sprague-Dawley rats (Taconic Farms) were ovariectomized and rested for nine days. Animals were housed under a 12-hour light/dark cycle, fed a casein-based Purina Laboratory Rodent Diet 5K96 (Purina, Richmond, Ind.) and allowed free access to water. […] The following results were obtained for representative compounds of the invention (Table (8)).

For experiment [6], the system named is HLA-B27 rats. Description: HLA rat test procedure for inflammatory bowel disease (stool score 3 = diarrhea, 2 = soft stool, 1 = normal stool; colon histology). It counts as in vivo.
Experiment [7] has as its system Lewis rats, Freund's Adjuvant-Complete induced arthritis. Description: Lewis rat adjuvant-induced arthritis, inhibition test procedure. It counts as in vivo. Particulars: Inhibition protocol, s.c. daily from Day 1.
Experiment [8] has the same test system. Kind of experiment: Lewis rat adjuvant-induced arthritis, treatment test procedure. In kind it is in vivo. Particulars: Treatment protocol, s.c. daily, begun Day 8 after adjuvant injection.
Experiment [9] deals with human endometrial tissue implanted into ovariectomized athymic nude mice. Description: Endometriosis test procedure. In kind it is in vivo, mouse. Particulars: 10 mg/kg oral daily. How it is done:
Evaluation in an Endometriosis Standard Pharmacologic Test Procedure This procedure is slightly modified from a published method [Bruner-Tran. et al., Journal of Clinical Investigation 99: 2851–2857. (1997)]. […] Lesions are allowed to establish for at least 10 days, then oral daily dosing begins and continues for at least 15 days. It should be noted that all mice have visible lesions at the start of dosing. At necropsy the number of mice with lesions is determined as well as the lesions per mouse.

The mark [10] stands for this setting: Study C colon histology, oral 7 weeks, 10 mg/kg days 1–18 then 20 mg/kg, mean ± SD.
[11] abbreviates: Study C colon histology, oral 7 weeks, 10 mg/kg days 1–24 then 20 mg/kg, mean ± SD.
Where [12] appears, read: Study B colon histology, oral 4 weeks, 10 mg/kg days 1–14 then 20 mg/kg, mean ± SD.

Values joined by “and” are separate entries in the source; they are usually repeats but may differ in a detail not shown here. Equal entries are not always repeated. Marks after values point to notes of the source that are not given here.

On to `C#C[C@]1(O)CC[C@H]2[C@@H]3CCc4cc(O)ccc4[C@H]3CC[C@@]21C` [17α-ethinyl, 17β-estradiol, 17α-ethinyl-17β-estradiol], for which, in experiment [1], the “mean uterine weight ± SEM” value was 104.7 ± 5.4 mg and 85.5 ± 3.1 mg. Besides, in experiment [2], the “Temperature change 15 minutes after naloxone injection (mean ± SEM)” value is 2.12 ± 1.14.

For the compound `C[C@]12CC[C@@H]3c4ccc(O)cc4CC[C@H]3[C@@H]1CC[C@@H]2O` [17β-estradiol], the “mean uterine weight ± SEM” value in experiment [3] was 41.9 ± 2.9 mg and 40.0 ± 2.0 mg and 35.6 ± 4.4 mg and 40.5 ± 5.84 mg and 42.9 ± 4.8 mg and 41.7 ± 3.6 mg. In [4] (2 μg/rat s.c.), the “Total Bone Mineral Density (mean ± SEM)” value worked out at 639.49 ± 14.47 mg/mL and the “Trabecular Bone Mineral Density (mean ± SEM)” value is 453.28 ± 24.93 mg/mL. Moreover, the “Casein kinase II mRNA/18 S rRNA (mean ± SEM)” value in [5] (0.1 mg/kg s.c. + Progesterone (30 mg/kg)) is given as 39.0 ± 5.36.

With `Oc1cc(Br)c2oc(-c3ccc(O)c(F)c3)nc2c1` [Example 21, 7-Bromo-2-(3-fluoro-4-hydroxyphenyl)-1,3-benzoxazol-5-ol], in [4] (10 mg/kg s.c.), the “Total Bone Mineral Density (mean ± SEM)” value amounted to 501.40 ± 11.97 mg/mL and the “Trabecular Bone Mineral Density (mean ± SEM)” value is 312.34 ± 19.73 mg/mL. Also, in experiment [6] (setting [10]), the “Fibrosis (0–2)” value is on record as 0.56 ± 0.32 and the “Lesion depth (0–2)” value is 0.75 ± 0.50. For the same compound, the “Ulceration (0–2)” value in experiment [6] (Study C colon histology, oral 7 weeks, 10 mg/kg then 20 mg/kg, mean ± SD) amounted to 0.81 ± 0.47. Besides, the “scores on all disease parameters vs vehicle-treated rats (in words)” value in [6] (Study C, oral, 10 mg/kg then 20 mg/kg) is listed as “not statistically significant, were lower”.

As for `C=Cc1cc(O)cc2nc(-c3ccc(O)c(F)c3)oc12` [Example 24, 2-(3-Fluoro-4-hydroxyphenyl)-7-vinyl-1,3-benzoxazol-5-ol], in experiment [5] (20 mg/kg s.c. + Progesterone (30 mg/kg)), the “Casein kinase II mRNA/18 S rRNA (mean ± SEM)” value stood at 3.98 ± 0.79. Moreover, in experiment [6] (Study A, 50 mg/kg s.c. once per day), the “Stool quality (in words)” value is on record as “improved”. Further, the “Fibrosis (0–2)” value in experiment [6] (setting [11]) is 0*. In addition, in experiment [6] (setting [11]), the “Inflammation (0–3)” value was 0.69 ± 0.24. In addition, the “Lesion depth (0–2)” value in experiment [6] (setting [11]) is 0*. Further, the Total score in experiment [6] (setting [11]) is 0.69 ± 0.24. The “Ulceration (0–2)” value in experiment [6] (setting [11]) was 0*. In addition, the “total disease score, intestinal histology (in words)” value in experiment [6] (Study C, oral, 10 mg/kg days 1–24 then 20 mg/kg) is recorded as “significantly reduced”. In experiment [6] (composite of two subcutaneous dosing studies, including Study A), the “measurements of tissue injury, colon histology (in words)” value is reported as “effective in reducing several measurements of tissue injury”. In addition, the “Joint inflammation score (maximal score per day 12)” value in [7] (Day 1) is listed as 0.00; in experiment [7] (Day 2) it was 1.00; in experiment [7] (Day 3), 4.50; in experiment [7] (Day 15), 3.00; in experiment [7] (Day 17), 1.50; in experiment [8] (Day 4) it was 9.50. For the same compound, the “Joint inflammation score (maximal score per day 12)” value in experiment [8] (Day 5) worked out at 8.00; in [8] (Day 6) it was 7.00; in experiment [8] (Day 9), 3.50; in experiment [8] (Day 17), 2.00. Besides, the “lesions at necropsy compared with mice dosed with vehicle” value in experiment [9] (evaluated three times) is “fewer lesions”. In [9] (Study 1), the “lesions found per animal (mice with lesions)” value is “one”. Also, in experiment [9] (Study 1), the “mice with lesion regression” value is “four of six”. Moreover, the “mice with any lesions at necropsy” value in [9] (Study 1, all mice had lesions at start of dosing) was “two of six”.

As for `C=Cc1cc(O)cc2nc(-c3ccc(O)cc3F)oc12` [Example 25, 2-(2-Fluoro-4-hydroxyphenyl)-7-vinyl-1,3-benzoxazol-5-ol], in experiment [6] (setting [12]), the “Fibrosis (0–2)” value is given as 0.31 ± .13, the “Inflammation (0–3)” value is reported as 1.50 ± 0.35, the “Lesion depth (0–2)” value is listed as 0.44 ± 0.24 and the “Ulceration (0–2)” value is 0.44 ± 0.24.

With `C=Cc1cc(O)cc2nc(-c3ccc(O)cc3)oc12` [Example 27, 2-(4-Hydroxyphenyl)-7-vinyl-1,3-benzoxazol-5-ol], the “Joint inflammation score (maximal score per day 12)” value is listed as 5.00 in experiment [8] (Day 8), 2.00 in [8] (Day 15), 2.00 in experiment [8] (Day 16) and 1.50 in experiment [8] (Day 17).

`C=C(Br)c1cc(O)cc2nc(-c3ccc(O)cc3F)oc12` [Example 32, 7-(1-Bromovinyl)-2-(2-fluoro-4-hydroxyphenyl)-1,3-benzoxazol-5-ol]: the “Joint inflammation score (maximal score per day 12)” value stood at 11.33 in [8] (Day 1); 10.83 in experiment [8] (Day 2); 9.33 in experiment [8] (Day 3); 8.00 in experiment [8] (Day 4); 5.83 in [8] (Day 5); 3.33 in experiment [8] (Day 6). Moreover, the “Joint inflammation score (maximal score per day 12)” value in experiment [8] (Day 7) came to 3.00; in experiment [8] (Day 8), 2.50; in [8] (Day 9), 2.50; in [8] (Day 10) it was 2.50; in experiment [8] (Day 11) it was 2.50; in [8] (Day 12), 2.50. For the same compound, the “Joint inflammation score (maximal score per day 12)” value in experiment [8] (Day 13) was 2.50; in [8] (Day 14), 2.50; in experiment [8] (Day 15), 2.00; in [8] (Day 16), 1.33; in experiment [8] (Day 17), 1.00.
